Assay results as given in US8609610B2, “Inhibitors of the trypsin-like site of the proteasome and methods of use thereof” (Trustees of Dartmouth College, priority 2011, dated 2013).
pIC50: −log10 of the molar value. Read-outs that look alike come from different tables or passages of the source.

What was measured:
[1] = test system: bortezomib-refractory primary myeloma cells from patients; assay: Combination in bortezomib-refractory primary myeloma cells; format: cell-based; conditions: in combination with bortezomib or PR523; primary cells from three patients
[2] = molecular target: T1, β5 proteasome subunit (Homo sapiens, UniProt P20618+P28074); assay: Competition assay in HEK-293T cell lysate with MV151; format: biochemical; conditions: HEK-293T lysate, 50 μM
T1 construct: Whole cell lysates of HEK-293T or EL-4 cells were made by sonication; endogenous in cells; host or cells: HEK-293T
Protocol: (§1) Whole cell lysates of HEK-293T or EL-4 cells were made by sonication in 3 volumes of lysis buffer containing 50 mM Tris pH 7.5, 1 mM DTT, 5 mM MgCl2, 250 mM sucrose, 2 mM ATP, 0.025% digitonin. Protein concentration was determined by the Bradford assay. Cell lysates (13.5 μg total protein for HEK lysates and 9 μg total protein for EL-4 lysates) were exposed to the inhibitors for 1 hour at 37° C. prior to incubation with MV151 (0.5 μM) or BODIPY-TMR-epoxomicin (0.5 μM) for an additional 1 hour at 37° C. Reaction mixtures were boiled with Laemmli's buffer containing (3-mercaptoethanol for 5 minutes before being resolved by 12.5% SDS-PAGE. In-gel detection of residual proteasome activity was performed in the wet gel slabs directly on the TYPHOON Variable Mode Imager (Amersham Biosciences) using the Cy3/Tamra settings (λex 532 nm, λem 560 nm) to detect MV151, BODIPY-TMR-epoxomicin and Cy2/Fam settings (λex 488 nm, λem 520 nm) to detect compounds 39 and 59.
(§2) The inhibition potential of the inhibitors for each of the catalytically active subunits was assessed in competition assays employing extracts of human embryonic kidney cells (HEK-293T) and mouse lymphoma cells (EL-4) in combination with the fluorescent broad spectrum proteasome probe MV151 (Verdoes, et al. (2006) Chem. Biol. 13:1217-1226). Competitive inhibition of a proteasome active site is reflected by the disappearance of the corresponding band on a gel.

[3] = test system: myeloma cells U266 and AMO-1; assay: Cytotoxicity in combination with β5-selective proteasome inhibitors; format: cell-based; conditions: PR671A with bortezomib or PR523
[4] = test system: trypsin-like sites (β2) of proteasome in MM cells; assay: PROTEASOMEGLO assay of proteasome inhibition in MM cells; format: cell-based
[5] = test system: bortezomib-adapted cell lines AMO-1a and HL-60a; assay: Combination in bortezomib-adapted cell lines; format: cell-based; conditions: in combination with bortezomib or PR523
[6] = test system: Cathepsin B, H, L, S; assay: Cathepsin activity with pan-cathepsin substrate Z-FR-amc; format: cell-based; conditions: NCI-H929 cells, 6 hour treatment
Summary of the method: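 Extracts of cytosol-less cells were used throughout. Cathepsins B, H, L and S were assayed with the fluorogenic Z-FR-amc substrate at pH 6.0. Cathepsin D was measured with the SENSOLYTE 520 fluorometric kit.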

[7] = molecular target: β2 (trypsin-like site) of proteasome in HEK-293T cells (Homo sapiens, UniProt P49720+Q99436); assay: Competition assay in living HEK-293T cells with activity-based probe; format: cell-based; conditions: 5 μM
Protocol: (§3) Proteasome inhibition in MM cells was measured with luminogenic substrates using PROTEASOMEGLO assay (Promega). […] An aliquot of culture was pelleted and medium was removed and replaced with PBS. The resulting cell suspension was mixed with luminogenic substrates in the manufacturer-provided lysis/assay buffer. After 3 minutes mixing on an orbital shaker, the plate was incubated in the dark for additional 17 minutes, followed by the measurements of the luminescence, performed in triplicate for each substrate/data point. Data were analyzed as for purified proteasomes. […] Cells (1×10^6 per well of a 6-well plate) were incubated with the inhibitors for 4 hours at 37° C. and this was followed by a 2 hour incubation with 5 μM BODIPY-TMR-epoxomicin. Subsequently, the medium was removed and the cells were washed with PBS and harvested. […] The supernatant was collected and the protein concentration was determined by the Bradford assay, and used to normalize gel loading. The samples were analysed by SDS-PAGE and fluorescent densitometry as described for competition experiment in cell lysates. IC50 values were calculated from three independent experiments using […] PRISM software.
(§4) Human embryonic kidney cells (some 1×10^6) were cultured in 6-well plates in DMEM containing 10% fetal calf serum, 10 units/mL penicillin and 10 μg/mL streptomycin in a 7% CO2 humidified incubator at 37° C. overnight. Part of the medium was taken and to this was added the appropriate inhibitor in DMSO (1 μL of a 1,000× stock solution), after which the medium was added to the cells. The cells were incubated with the inhibitors for 4 hours at 37° C. and this was followed by addition of MV151 (1 μL of a 5 mM stock solution in DMSO) and incubation for 2 hours at 37° C. Next, the medium was removed and the cells were washed with PBS and harvested. […] The supernatant was collected and the protein concentration was determined by the Bradford assay. All samples were normalized to the same protein concentration with lysis buffer.

[8] = test system: RPMI-8226 cells; assay: ALAMAR BLUE cell viability assay; format: cell-based; conditions: RPMI-8226 cells
Summary of the method: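 Myeloma lines were grown in RPMI-1640 with 10% FBS; viability of myeloma cells was read by ALAMAR BLUE mitochondrial dye conversion. PBMNC viability used CELL TITER-GLO ATP luminescence. Caspase-3/7 activity in NCI-H929 and MM1.R was measured with the APO-ONE homogeneous assay.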

[9] = molecular target: T2, caspase-like sites (β1) of proteasome in MM cells (Homo sapiens, UniProt P28072+Q99436); assay: PROTEASOMEGLO assay of proteasome inhibition in MM cells; format: cell-based; conditions: read-out: IC50 for sites: Casp-L, 6 hours, >>30 no inhibition at 30 μM, >30 inhibition 10-50% at 30 μM
T2 sequence (P28072 35-239): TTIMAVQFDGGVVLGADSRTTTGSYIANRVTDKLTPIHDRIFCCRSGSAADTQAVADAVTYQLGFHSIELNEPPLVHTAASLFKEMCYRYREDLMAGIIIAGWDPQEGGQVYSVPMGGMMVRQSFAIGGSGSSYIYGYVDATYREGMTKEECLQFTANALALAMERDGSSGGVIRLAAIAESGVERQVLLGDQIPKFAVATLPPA
T2 sequence (Q99436 44-277): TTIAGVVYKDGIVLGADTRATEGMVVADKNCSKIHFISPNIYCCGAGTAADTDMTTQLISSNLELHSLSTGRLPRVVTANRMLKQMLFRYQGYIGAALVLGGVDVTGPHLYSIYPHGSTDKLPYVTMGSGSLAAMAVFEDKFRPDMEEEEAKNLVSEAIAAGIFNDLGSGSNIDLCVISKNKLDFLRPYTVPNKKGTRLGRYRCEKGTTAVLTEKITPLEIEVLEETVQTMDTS

[10] = molecular target: caspase-like site of 26S proteasomes (Oryctolagus cuniculus, UniProt A0A5F9DQW2); assay: Inhibition of purified 26S proteasomes, substrate Ac-nLPnLD-amc; format: biochemical, rabbit; conditions: >>30 no inhibition at 30 μM, >30 inhibition between 10 and 50% at 30 μM, read-out: IC50 for sites in 26S proteasomes: Casp-L
caspase-like site of 26S proteasomes, sequence (A0A5F9DQW2 1-212): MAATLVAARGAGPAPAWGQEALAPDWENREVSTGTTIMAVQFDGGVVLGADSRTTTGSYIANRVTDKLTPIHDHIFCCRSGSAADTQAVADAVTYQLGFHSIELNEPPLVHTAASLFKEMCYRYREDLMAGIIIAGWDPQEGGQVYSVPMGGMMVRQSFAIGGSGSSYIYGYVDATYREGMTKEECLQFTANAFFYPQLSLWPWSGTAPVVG
Protocol: 26S proteasomes were purified from rabbit muscle using known methods (Screen, et al. (2010) supra). […] NOVEX Bis-Tris gels (12%, Invitrogen) with MOPS running buffer were used for electrophoretic separation of catalytic subunits modified by active-site probes. Inhibition of active sites inside cells was assayed using luminescent PROTEASOMEGLO assay (Promega; Moravec, et al. (2009) Anal. Biochem. 387:294-302) according to known methods (Britton, et al. (2009) supra).

[11] = molecular target: chymotrypsin-like activity of yeast 20S proteasome (Saccharomyces cerevisiae, UniProt P23724+P30656); assay: Yeast 20S core particle activity, substrate Suc-LLVY-amc; conditions: read-out: IC50 for yeast 20S proteasome: Chym-L
Protocol: Proteasomes were pre-incubated with inhibitors for minutes, and inhibitors were present during activity assays. Fluorescence was measured at λexc=360, λem=460 nm using a Varian Cary Eclipse Fluorescence Spectrophotometer (Agilent Technologies).

[12] = molecular target: T3, trypsin-like sites (β2) of proteasome in MM cells (Homo sapiens, UniProt Q99436); assay: PROTEASOMEGLO assay of proteasome inhibition in MM cells; format: cell-based; conditions: 6 hours, >>30 no inhibition at 30 μM, >30 inhibition 10-50% at 30 μM, read-out: IC50 for sites: Tr-L
T3 construct: endogenous in cells; host or cells: NCI-H929, RPMI-8226 and other MM cell lines
T3 sequence (Q99436 44-277): T2 sequence (Q99436 44-277)

[13] = molecular target: T4, β2i proteasome subunit (Mus musculus, UniProt O35955+Q9R1P1); assay: Competition assay in EL-4 cell lysate with MV151; format: biochemical; conditions: EL-4 lysate
T4 construct: Whole cell lysates of HEK-293T or EL-4 cells were made by sonication; endogenous in cells; host or cells: EL-4
Protocol: as §1
as §2, with “Competitive inhibition of a proteasome active site is reflected by the disappearance of the corresponding band on a gel.” left out

[14] = molecular target: β5 (chymotrypsin-like site) of proteasome in HEK-293T cells (Homo sapiens, UniProt P20618+P28074); assay: Competition assay in living HEK-293T cells with activity-based probe; format: cell-based; conditions: concentrations up to 50 μM
Protocol: as §3, §4

[15] = molecular target: T5, β2 proteasome subunit (Mus musculus, UniProt P70195+Q9R1P1); assay: Competition assay in EL-4 cell lysate with MV151; format: biochemical; conditions: 0.5 μM
T5 construct: Whole cell lysates of HEK-293T or EL-4 cells were made by sonication; endogenous in cells; host or cells: EL-4

Compound | effect on bortezomib resistance [1] | inhibition of β5 in cell lysate [2] | cytotoxicity of combination [3] | difference in IC50 for trypsin-like activity between NCI-H929 and RPMI-8226 [4] | time to steady-state proteasome inhibition ([4]; RPMI-8226 cells) | effect on bortezomib resistance [5] | inhibition of cathepsins (Z-FR-amc) [6] | inhibition of β2 activity in living cells ([7]; 4 hours) | sensitization to bortezomib [8] | sensitization to carfilzomib [8] | pIC50 ([9]; NCI-H929 cells) | pIC50 ([9]; RPMI-8226 cells) | pIC50 [10] | pIC50 [11] | pIC50 ([12]; NCI-H929 cells) | pIC50 ([12]; RPMI-8226 cells) | concentration at which inhibition of β2i starts [13] | β5 in living cells [14] | β2 band in living cells [7] | inhibition of β2 in EL-4 lysate [15]
CC(C)C[C@H](NC(=O)[C@H](Cc1ccccc1)N=[N+]=[N-])C(=O)N[C@@H](CC(C)C)C(=O)N[C@H](/C=C/S(C)(=O)=O)Cc1ccc(CN)cc1 [Compound 4a, N3Phe-Leu-Leu-Phe (4-CH2NH2) VS] | overcomes bortezomib resistance | completely blocked β5 | synergistic cytotoxicity | three-fold | 1 h | overcomes bortezomib resistance | Partial inhibition of cathepsins | inhibiting (almost) all β2 activity | sensitized RPMI-8226 cells to bortezomib | slightly more potent sensitizer to carfilzomib than was NC-022 | – | – | – | – | – | – | – | – | – | –
Cc1c(O)cccc1C(=O)N[C@H](C(=O)N[C@@H](CO)C(=O)N[C@H](/C=C/S(C)(=O)=O)Cc1ccc(CN)cc1)C(C)C [Compound 48, HMB-Val-Ser-Phe (4-CH2NH2)-VS] | – | Only a part of the β5 activity was inhibited | – | greater than ten-fold | – | – | did not cause any inhibition of cathepsins | – | – | – | < 4.52 | < 4.52 | 4.96 | 4.71 | 6.70 | 5.49 | 5 µM | not affected at all | almost disappeared | almost completely blocked
